The target of the assay is T1, hGLP1 receptor (Homo sapiens, UniProt P43220).
T1 construct: expressed in transfected cells; host or cells: HEK (human embryonic kidney) cells co-expressing hGLP1 receptor and CRE-Luciferase
Kind of assay: cAMP HTRF agonist assay in HEK cells co-expressing hGLP1 receptor and CRE-Luciferase. Format: cell-based. The conditions noted are these: for fold lower potency than the parent peptide (1-4): relative to parent 1-4. The gist of the method: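 HEK cells co-expressing hGLP1R and CRE-luciferase, 1000 cells/well in DPBS with 500 μM IBMX, exposed to peptides or exendin-4 reference for 30 min; 11-point 1:3 series from top 1.0 μM. cAMP measured by HTRF (665/615 nm) after 1 h at room temperature; EC50 from 4-parameter logistic fit.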

The mark [1] stands for this setting: Table 5, 0% albumin, read-out: cAMP EC50, nM (0% albumin).
Setting [2] is: cAMP EC50, nM (0.1% albumin), Table 6, 0.1% albumin.

This is an account of results in patent US20230015478A1, “GLP-1 RECEPTOR AGONISTS HAVING IMPROVED PHARMACOLOGICAL AND DRUG DELIVERY PROPERTIES” (priority 2021, published 2023).

Read-outs that look alike come from different tables or passages of the source. Numbered stars: 1 amine (or outer) side, 2 acyl side, 3 side chain; on linkers, the order of the positions; unused ones are H or OH. Square brackets hold non-standard residues; d marks the D form. Peptide text beside a SMILES is read from it. * marks the point of attachment. Dap(Nα-HOOC(CH2)16CO)OH = O=C(O)CCCCCCCCCCCCCCCCC(=O)N[C@@H](CN*)C(=O)O; Bip = N[C@@H](Cc1ccc(-c2ccccc2)cc1)C(=O)O; X1 = C[C@@](CCc1ccccc1)(N[*:1])C(=O)[*:2]; αMePhe(2-F) = C[C@](N)(Cc1ccccc1F)C(=O)O; hTyr = N[C@@H](CCc1ccc(O)cc1)C(=O)O; hPhe = N[C@@H](CCc1ccccc1)C(=O)O; AEEA = NCCOCCOCC(=O)O; Aib = CC(C)(N)C(=O)O

T1 sequence (P43220 24-463): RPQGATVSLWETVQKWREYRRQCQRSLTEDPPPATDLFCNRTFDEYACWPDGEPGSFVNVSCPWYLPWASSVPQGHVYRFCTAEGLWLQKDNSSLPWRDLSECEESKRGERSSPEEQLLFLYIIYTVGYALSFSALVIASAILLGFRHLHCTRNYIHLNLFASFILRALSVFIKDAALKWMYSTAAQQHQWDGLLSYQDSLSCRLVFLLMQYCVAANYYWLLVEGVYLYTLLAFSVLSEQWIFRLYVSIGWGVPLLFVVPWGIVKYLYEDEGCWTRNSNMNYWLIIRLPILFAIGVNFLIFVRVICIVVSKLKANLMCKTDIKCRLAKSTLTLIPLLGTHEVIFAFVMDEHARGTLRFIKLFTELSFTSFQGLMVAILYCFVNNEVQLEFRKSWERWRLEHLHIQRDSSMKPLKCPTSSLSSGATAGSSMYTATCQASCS

As to `C[C@@H](O)[C@H](NC(=O)CNC(=O)[C@H](CCC(=O)O)NC(=O)C(C)(C)NC(=O)[C@@H](N)Cc1c[nH]cn1)C(=O)N[C@@](C)(Cc1ccccc1F)C(=O)N[C@H](C(=O)N[C@@H](CO)C(=O)N[C@@H](CC(=O)O)C(=O)N[C@@H](Cc1ccc(-c2ccccc2)cc1)C(=O)N[C@@H](CCc1ccccc1)C(=O)O)[C@@H](C)O` [4-1, H2N-His-Aib-Glu-Gly-Thr-α-MePhe(2-F)-Thr-Ser-Asp-Bip-Hph-C(O)OH] (H-H[Aib]EGT[αMePhe(2-F)]TSD[Bip][hPhe]-OH), the “fold lower potency than the parent peptide (1-4)” value was “about 30 fold”. Under setting [1], the EC50 (usually the midpoint of the concentration-response curve) came to 272 nM.
Take `C[C@@H](O)[C@H](NC(=O)CNC(=O)[C@H](CCC(=O)O)NC(=O)C(C)(C)NC(=O)[C@@H](N)Cc1c[nH]cn1)C(=O)N[C@@](C)(Cc1ccccc1F)C(=O)N[C@H](C(=O)N[C@@H](CO)C(=O)N[C@@H](CC(=O)O)C(=O)N[C@@H](Cc1ccc(-c2ccccc2)cc1)C(=O)N[C@@](C)(CCc1ccccc1)C(N)=O)[C@@H](C)O` [4-2, H2N-His-Aib-Glu-Gly-Thr-α-MePhe(2-F)-Thr-Ser-Asp-Bip-α-MeHph-C(O)NH2] (H-H[Aib]EGT[αMePhe(2-F)]TSD[Bip][X1]-NH2): the EC50 under setting [1] was found to be 5.5 nM.
Same read-out and setting: for `C[C@@H](O)[C@H](NC(=O)CNC(=O)[C@H](CCC(=O)O)NC(=O)C(C)(C)NC(=O)[C@@H](N)Cc1c[nH]cn1)C(=O)N[C@@](C)(Cc1ccccc1F)C(=O)N[C@H](C(=O)N[C@@H](CO)C(=O)N[C@@H](CC(=O)O)C(=O)N[C@@](C)(CCc1ccccc1)C(=O)N[C@@H](Cc1ccc(-c2ccccc2)cc1)C(N)=O)[C@@H](C)O` [4-3, H2N-His-Aib-Glu-Gly-Thr-α-MePhe(2-F)-Thr-Ser-Asp-α-MeHph-Bip-C(O)NH2] (H-H[Aib]EGT[αMePhe(2-F)]TSD[X1][Bip]-NH2) the value was 184 nM.
As to `C[C@@H](O)[C@H](NC(=O)CNC(=O)[C@H](CCC(=O)O)NC(=O)C(C)(C)NC(=O)[C@@H](N)Cc1c[nH]cn1)C(=O)N[C@@](C)(Cc1ccccc1F)C(=O)N[C@H](C(=O)N[C@@H](CO)C(=O)N[C@@H](CC(=O)O)C(=O)N[C@@H](Cc1ccc(-c2ccccc2)cc1)C(=O)N[C@@H](CCc1ccc(O)cc1)C(N)=O)[C@@H](C)O` [4-4, H2N-His-Aib-Glu-Gly-Thr-α-MePhe(2-F)-Thr-Ser-Asp-Bip-Hph(4-OH)-C(O)NH2] (H-H[Aib]EGT[αMePhe(2-F)]TSD[Bip][hTyr]-NH2), the EC50 reads like this: under setting [1], 16.6 nM; under setting [2], 16.6 nM.
Under setting [2], `C[C@@H](O)[C@H](NC(=O)CNC(=O)[C@H](CCC(=O)O)NC(=O)C(C)(C)NC(=O)[C@@H](N)Cc1c[nH]cn1)C(=O)N[C@@](C)(Cc1ccccc1F)C(=O)N[C@H](C(=O)N[C@@H](CO)C(=O)N[C@@H](CC(=O)O)C(=O)N[C@@H](Cc1ccc(-c2ccccc2)cc1)C(=O)N[C@@H](Cc1ccc(-c2ccccc2)cc1)C(=O)N[C@@H](CCCCN)C(N)=O)[C@@H](C)O` [4-28, H2N-His-Aib-Glu-Gly-Thr-α-MePhe(2F)-Thr-Ser-Asp-Bip-Bip-Lys-NH2] (H-H[Aib]EGT[αMePhe(2-F)]TSD[Bip][Bip]K-NH2) displayed an EC50 of 16.1 nM.
On the same count and under the same terms, for `C[C@@H](O)[C@H](NC(=O)CNC(=O)[C@H](CCC(=O)O)NC(=O)C(C)(C)NC(=O)[C@@H](N)Cc1c[nH]cn1)C(=O)N[C@@](C)(Cc1ccccc1F)C(=O)N[C@H](C(=O)N[C@@H](CO)C(=O)N[C@@H](CC(=O)O)C(=O)N[C@@H](Cc1ccc(-c2ccccc2)cc1)C(=O)N[C@@H](Cc1ccc(-c2ccccc2)cc1)C(=O)NCCOCCOCC(=O)NCCOCCOCC(N)=O)[C@@H](C)O` [4-29, H2N-His-Aib-Glu-Gly-Thr-α-MePhe(2F)-Thr-Ser-Asp-Bip-Bip-C(O)(AEEA)2-NH2] (H-H[Aib]EGT[αMePhe(2-F)]TSD[Bip][Bip][AEEA][AEEA]-NH2) the value was 10 nM.
Still for that read-out and setting: for `C[C@@H](O)[C@H](NC(=O)CNC(=O)[C@H](CCC(=O)O)NC(=O)C(C)(C)NC(=O)[C@@H](N)Cc1c[nH]cn1)C(=O)N[C@@](C)(Cc1ccccc1F)C(=O)N[C@H](C(=O)N[C@@H](CO)C(=O)N[C@@H](CC(=O)O)C(=O)N[C@@H](Cc1ccc(-c2ccccc2)cc1)C(=O)N[C@@H](Cc1ccc(-c2ccccc2)cc1)C(=O)NCCOCCOCC(=O)NCCOCCOCC(=O)N[C@@H](CCCCN)C(N)=O)[C@@H](C)O` [4-30, H2N-His-Aib-Glu-Gly-Thr-α-MePhe(2F)-Thr-Ser-Asp-Bip-Bip-C(O)(AEEA)2-Lys-NH2] (H-H[Aib]EGT[αMePhe(2-F)]TSD[Bip][Bip][AEEA][AEEA]K-NH2) the value was 14 nM.
On the same count and under the same terms, to `C[C@@H](O)[C@H](NC(=O)CNC(=O)[C@H](CCC(=O)O)NC(=O)C(C)(C)NC(=O)[C@@H](N)Cc1c[nH]cn1)C(=O)N[C@@](C)(Cc1ccccc1F)C(=O)N[C@H](C(=O)N[C@@H](CO)C(=O)N[C@@H](CC(=O)O)C(=O)N[C@@H](Cc1ccc(-c2ccccc2)cc1)C(=O)N[C@@H](Cc1ccc(-c2ccccc2)cc1)C(=O)NCCOCCOCC(=O)NCCOCCOCC(=O)NCCOCCOCC(=O)N[C@@H](CCCCN)C(N)=O)[C@@H](C)O` [4-31, H2N-His-Aib-Glu-Gly-Thr-α-MePhe(2F)-Thr-Ser-Asp-Bip-Bip-C(O)(AEEA)3-Lys-NH2] (H-H[Aib]EGT[αMePhe(2-F)]TSD[Bip][Bip][AEEA][AEEA][AEEA]K-NH2) belongs 31.2 nM; to `C[C@@H](O)[C@H](NC(=O)CNC(=O)[C@H](CCC(=O)O)NC(=O)C(C)(C)NC(=O)[C@@H](N)Cc1c[nH]cn1)C(=O)N[C@@](C)(Cc1ccccc1F)C(=O)N[C@H](C(=O)N[C@@H](CO)C(=O)N[C@@H](CC(=O)O)C(=O)N[C@@H](Cc1ccc(-c2ccccc2)cc1)C(=O)N[C@@H](Cc1ccc(-c2ccccc2)cc1)C(=O)NC(C)(C)C(=O)NCC(=O)NCC(=O)N[C@@H](CCCCN)C(N)=O)[C@@H](C)O` [4-33, H2N-His-Aib-Glu-Gly-Thr-α-MePhe(2F)-Thr-Ser-Asp-Bip-Bip-Aib-(Gly)2-Lys-NH2] (H-H[Aib]EGT[αMePhe(2-F)]TSD[Bip][Bip][Aib]GGK-NH2), 33.7 nM; to `C[C@@H](O)[C@H](NC(=O)CNC(=O)[C@H](CCC(=O)O)NC(=O)C(C)(C)NC(=O)[C@@H](N)Cc1c[nH]cn1)C(=O)N[C@@](C)(Cc1ccccc1F)C(=O)N[C@H](C(=O)N[C@@H](CO)C(=O)N[C@@H](CC(=O)O)C(=O)N[C@@H](Cc1ccc(-c2ccccc2)cc1)C(=O)N[C@@H](CCc1ccccc1)C(=O)NCCOCCOCC(=O)NCCOCCOCC(N)=O)[C@@H](C)O` [4-35, H2N-His-Aib-Glu-Gly-Thr-α-MePhe(2-F)-Thr-Ser-Asp-Bip-Hph-C(O)NH-RY1] (H-H[Aib]EGT[αMePhe(2-F)]TSD[Bip][hPhe][AEEA][AEEA]-NH2), 67.2 nM.
Take `C[C@@H](O)[C@H](NC(=O)CNC(=O)[C@H](CCC(=O)O)NC(=O)C(C)(C)NC(=O)[C@@H](N)Cc1c[nH]cn1)C(=O)N[C@@](C)(Cc1ccccc1F)C(=O)N[C@H](C(=O)N[C@@H](CO)C(=O)N[C@@H](CC(=O)O)C(=O)N[C@@H](Cc1ccc(-c2ccccc2)cc1)C(=O)N[C@@H](CCc1ccccc1)C(=O)NCCOCCOCC(=O)NCCOCCOCC(=O)NC[C@H](NC(=O)CCCCCCCCCCCCCCCCC(=O)O)C(=O)O)[C@@H](C)O` [4-36, H2N-His-Aib-Glu-Gly-Thr-α-MePhe(2-F)-Thr-Ser-Asp-Bip-Hph-C(O)NH-RY2] (H-H[Aib]EGT[αMePhe(2-F)]TSD[Bip][hPhe][AEEA][AEEA]-{Dap(Nα-HOOC(CH2)16CO)OH}): the “fold lower potency than the parent peptide (1-4)” value is recorded as 15 fold. Besides, under setting [2], the midpoint of the response, the EC50, lay at 70.9 nM.
